Values joined by “and” are separate entries in the source; they are usually repeats but may differ in a detail not shown here. Equal values may be shown once. Toxic doses and inconclusive results are not listed.
Test system: BDF1 mice, P388 leukemia ip, median survival T/C
Assay: NCI In Vivo Anticancer Drug Screen. Data for tumor model P388 Leukemia (intraperitoneal) in B6D2F1 (BDF1) mice
Settings: endpoint: median survival time, higher = longer survival
Procedure, shortened: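 Survival ratio, drug arm over vehicle arm, in mice with a transplanted tumour.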

[1] = dose: 50.0 mg/kg/injection, schedule: Q01DX009 (ip), vehicle: saline
[2] = dose: 100.0 mg/kg/injection, schedule: Q04DX003 (ip), vehicle: saline with Tween-80
[3] = dose: 200.0 mg/kg/injection, schedule: Q04DX003 (ip), vehicle: saline with Tween-80
[4] = dose: 400.0 mg/kg/injection, schedule: Q04DX003 (ip), vehicle: saline with Tween-80
[5] = dose: 100.0 mg/kg/injection, schedule: Q01DX009 (ip), vehicle: saline
[6] = dose: 200.0 mg/kg/injection, schedule: Q01DX009 (ip), vehicle: saline
[7] = dose: 50.0 mg/kg/injection, schedule: Q01DX009 (ip), vehicle: saline with Tween-80
[8] = dose: 100.0 mg/kg/injection, schedule: Q01DX009 (ip), vehicle: saline with Tween-80

COC(=O)c1cc([N+](=O)[O-])c(Cl)c([N+](=O)[O-])c1
T/C (dose: 6.25 mg/kg/injection, schedule: Q01DX009 (ip), vehicle: Klucel (hydroxypropylcellulose) (HPC)): 109 % of control | T/C (dose: 12.5 mg/kg/injection, schedule: Q01DX009 (ip), vehicle: Klucel (hydroxypropylcellulose) (HPC)): 104 % of control | T/C (dose: 25.0 mg/kg/injection, schedule: Q01DX009 (ip), vehicle: Klucel (hydroxypropylcellulose) (HPC)): 100 % of control | T/C (dose: 25.0 mg/kg/injection, schedule: Q04DX003 (ip), vehicle: Klucel (hydroxypropylcellulose) (HPC)): 100 % of control | T/C (dose: 50.0 mg/kg/injection, schedule: Q04DX003 (ip), vehicle: Klucel (hydroxypropylcellulose) (HPC)): 105 % of control

O=S(=O)(CCl)OCCCCOS(=O)(=O)CCl
T/C (dose: 66.0 mg/kg/injection, schedule: Q01DX009 (ip), vehicle: saline): 104 % of control

OCC(O)C(O)C(O)C(O)C(O)CO (stereo not drawn)
T/C (dose: 100.0 mg/kg/injection, schedule: Q01DX010 (ip), vehicle: carboxymethylcellulose (CMC)): 100 % of control | T/C (dose: 100.0 mg/kg/injection, schedule: Q01DX010 (ip), vehicle: saline): 95 % of control | T/C (dose: 400.0 mg/kg/injection, schedule: Q01DX010 (ip), vehicle: carboxymethylcellulose (CMC)): 100 % of control | T/C (dose: 400.0 mg/kg/injection, schedule: Q01DX010 (ip), vehicle: saline): 100 % of control

CCCCCCCOC(C[N+](=O)[O-])C(Cl)(Cl)Cl (stereo not drawn)
T/C (dose: 12.5 mg/kg/injection, schedule: Q01DX009 (ip), vehicle: saline): 120 % of control | T/C (dose: 25.0 mg/kg/injection, schedule: Q01DX009 (ip), vehicle: saline): 120 % of control | T/C (dose: 37.5 mg/kg/injection, schedule: Q04DX003 (ip), vehicle: saline): 100 % of control | T/C [1]: 120 % of control | T/C (dose: 75.0 mg/kg/injection, schedule: Q04DX003 (ip), vehicle: saline): 95 % of control | T/C (dose: 150.0 mg/kg/injection, schedule: Q04DX003 (ip), vehicle: saline): 95 % of control | T/C (dose: 340.0 mg/kg/injection, schedule: Q04DX003 (ip), vehicle: saline): 90 % of control

O=C(Nc1cccc(C(F)(F)F)c1)Nc1ccc(Oc2ccc(Cl)cc2)cc1S(=O)(=O)O
T/C (dose: 50.0 mg/kg/injection, schedule: Q04DX003 (ip), vehicle: saline sonified): 104 % of control | T/C (dose: 100.0 mg/kg/injection, schedule: Q04DX003 (ip), vehicle: saline sonified): 100 % of control

c1ccc2c(c1)OCCOCCOc1ccccc1OCCOCCO2
T/C (dose: 4.69 mg/kg/injection, schedule: Q01DX009 (ip), vehicle: saline with Tween-80): 100 % of control | T/C (dose: 9.38 mg/kg/injection, schedule: Q01DX009 (ip), vehicle: saline with Tween-80): 90 % of control | T/C (dose: 18.7 mg/kg/injection, schedule: Q01DX009 (ip), vehicle: saline with Tween-80): 90 % of control | T/C [2]: 100 % of control | T/C (dose: 150.0 mg/kg/injection, schedule: Q01DX009 (ip), vehicle: saline with Tween-80): 89 % of control | T/C [3]: 100 % of control | T/C [4]: 105 % of control

CCCCNC(C)(C)C(SC(C)=O)c1ccc(Cl)cc1 (stereo not drawn)
T/C [2]: 108 % of control | T/C [3]: 112 % of control

CCOC(=O)C(NC=O)C(=O)OCC
T/C [1]: 105 % of control | T/C [5]: 94 % of control | T/C [6]: 93 % of control | T/C (dose: 400.0 mg/kg/injection, schedule: Q01DX009 (ip), vehicle: saline): 93 % of control

CC(=O)OC1C2CCC3C(C)(O)C4CC(O)C(C)(C)C4(O)C(O)CC13CC2(C)O (stereo not drawn)
T/C (dose: 12.5 micrograms/kg/injection, schedule: Q01DX009 (ip), vehicle: Klucel (hydroxypropylcellulose) (HPC)): 96 % of control | T/C (dose: 25.0 micrograms/kg/injection, schedule: Q01DX009 (ip), vehicle: Klucel (hydroxypropylcellulose) (HPC)): 91 % of control | T/C (dose: 50.0 micrograms/kg/injection, schedule: Q01DX009 (ip), vehicle: Klucel (hydroxypropylcellulose) (HPC)): 87 % of control

CC1(C)/C(=C/c2ccccc2)C(=O)c2ccccc21
T/C (dose: 12.5 mg/kg/injection, schedule: Q04DX003 (ip), vehicle: saline): 107 % of control | T/C (dose: 25.0 mg/kg/injection, schedule: Q04DX003 (ip), vehicle: saline): 118 % of control | T/C (dose: 50.0 mg/kg/injection, schedule: Q04DX003 (ip), vehicle: saline): 91 % of control | T/C (dose: 100.0 mg/kg/injection, schedule: Q04DX003 (ip), vehicle: saline): 103 % of control and 121 % of control | T/C (dose: 200.0 mg/kg/injection, schedule: Q04DX003 (ip), vehicle: saline): 102 % of control and 112 % of control | T/C (dose: 400.0 mg/kg/injection, schedule: Q04DX003 (ip), vehicle: saline): 110 % of control

O=S(=O)([O-])NC1CCCCC1.O=S(=O)([O-])NC1CCCCC1.[Hg+2].[Hg+2].[Hg+2].[O-2].[O-2]
T/C (dose: 0.5 mg/kg/injection, schedule: Q01DX009 (ip), vehicle: Klucel (hydroxypropylcellulose) (HPC)): 99 % of control | T/C (dose: 1.0 mg/kg/injection, schedule: Q01DX009 (ip), vehicle: Klucel (hydroxypropylcellulose) (HPC)): 111 % of control | T/C (dose: 2.0 mg/kg/injection, schedule: Q01DX009 (ip), vehicle: Klucel (hydroxypropylcellulose) (HPC)): 111 % of control | T/C (dose: 4.0 mg/kg/injection, schedule: Q01DX009 (ip), vehicle: Klucel (hydroxypropylcellulose) (HPC)): 121 % of control | T/C (dose: 8.0 mg/kg/injection, schedule: Q01DX009 (ip), vehicle: Klucel (hydroxypropylcellulose) (HPC)): 101 % of control

NC(=O)C(N)CCSCC(=O)O (stereo not drawn)
T/C [1]: 88 % of control | T/C [5]: 91 % of control | T/C [6]: 94 % of control

O=C(OC12CCCCC1CCCC2)c1ccc([N+](=O)[O-])cc1 (stereo not drawn)
T/C [2]: 110 % of control | T/C [3]: 100 % of control | T/C [4]: 100 % of control

Cc1nc2ccccc2nc1CC(O)(c1ccccc1)c1ccccc1
T/C [7]: 97 % of control | T/C [8]: 103 % of control | T/C (dose: 200.0 mg/kg/injection, schedule: Q01DX009 (ip), vehicle: saline with Tween-80): 100 % of control

O=Cc1nc2ccccc2[nH]1
T/C (dose: 12.5 mg/kg/injection, schedule: Q01DX009 (ip), vehicle: saline with Tween-80): 108 % of control | T/C (dose: 25.0 mg/kg/injection, schedule: Q01DX009 (ip), vehicle: saline with Tween-80): 101 % of control | T/C [7]: 103 % of control | T/C [8]: 111 % of control

COc1cc2ccc3c4cc5c(cc4c[n+](C)c3c2cc1OC)OCO5
T/C (dose: 20.0 mg/kg/injection, schedule: Q01DX009 (ip), vehicle: saline): 122 % of control | T/C (dose: 40.0 mg/kg/injection, schedule: Q01DX009 (ip), vehicle: saline): 154 % of control and 159 % of control | T/C (dose: 80.0 mg/kg/injection, schedule: Q01DX009 (ip), vehicle: saline): 113 % of control | T/C (dose: 120.0 mg/kg/injection, schedule: Q01DX009 (ip), vehicle: saline): 86 % of control

C/C(=C\n1ccccc1=N)C(=O)c1ccc(F)cc1
T/C (dose: 100.0 mg/kg/injection, schedule: Q04DX003 (ip), vehicle: Klucel (hydroxypropylcellulose) (HPC)): 95 % of control | T/C (dose: 200.0 mg/kg/injection, schedule: Q04DX003 (ip), vehicle: Klucel (hydroxypropylcellulose) (HPC)): 90 % of control | T/C (dose: 400.0 mg/kg/injection, schedule: Q04DX003 (ip), vehicle: Klucel (hydroxypropylcellulose) (HPC)): 104 % of control

C[C@]12CCC(=O)C=C1CC[C@@H]1[C@@H]2[C@@H](O)C[C@@]2(C)[C@H]1CC[C@]2(O)C(=O)COC(=O)CCC(=O)O
T/C (dose: 50.0 mg/kg/injection, schedule: Q01DX009 (sc), vehicle: steriod suspending solution): 111 % of control | T/C (dose: 100.0 mg/kg/injection, schedule: Q01DX009 (sc), vehicle: steriod suspending solution): 111 % of control | T/C (dose: 100.0 mg/kg/injection, schedule: Q04DX003 (sc), vehicle: steriod suspending solution): 100 % of control | T/C (dose: 200.0 mg/kg/injection, schedule: Q01DX009 (sc), vehicle: steriod suspending solution): 116 % of control | T/C (dose: 200.0 mg/kg/injection, schedule: Q04DX003 (sc), vehicle: steriod suspending solution): 104 % of control | T/C (dose: 400.0 mg/kg/injection, schedule: Q01DX009 (sc), vehicle: steriod suspending solution): 111 % of control | T/C (dose: 400.0 mg/kg/injection, schedule: Q04DX003 (sc), vehicle: steriod suspending solution): 100 % of control

Source: PubChem BioAssay AID328 (DTP/NCI, 2004)
